Test results: article PMC11435058, “Synthesis of New Thiazole-Privileged Chalcones as Tubulin Polymerization Inhibitors with Potential Anticancer Activities” (Pharmaceuticals, 2024)
Read-outs that look alike come from different tables or passages of the source.

Legend:
[1] = test system: 60 human tumor cell lines panel; assay: NCI-60 anticancer screen, whole panel (means and ranges over the cell lines); assay type: cell-based; conditions: for activity at 10 µM: Homo sapiens, 48 h, dose of 10 μM
SNB-19 = assay: cells; conditions: Homo sapiens
K-562 = assay: NCI-60 anticancer screen (SRB; single dose and five doses); conditions: Homo sapiens
MOLT-4 = assay: as above; conditions: Homo sapiens
RPMI-8226 = assay: as above; conditions: Homo sapiens
SR = assay: as above; conditions: Homo sapiens
EKVX = assay: as above; conditions: Homo sapiens
NCI-H226 = assay: as above; conditions: Homo sapiens
NCI-H23 = assay: as above; conditions: Homo sapiens
NCI-H322M = assay: as above; conditions: Homo sapiens
NCI-H522 = assay: as above; conditions: Homo sapiens
COLO 205 = assay: as above; conditions: Homo sapiens
SF-268 = assay: as above; conditions: Homo sapiens
SF-539 = assay: as above; conditions: Homo sapiens
[2] = five doses, mean graph midpoint over all cell lines
[3] = 48 h, read-out: Growth Percentage

Structure (SMILES): Cc1[nH]c(=S)sc1C(=O)/C=C/c1ccc([N+](=O)[O-])cc1 [2i, (E)-1-(4-Methyl-2-Thioxo-2,3-Dihydrothiazol-5-yl)-3-(4-Nitrophenyl)Prop-2-En-1-One]
- activity at 10 µM ([1]; mean over the tested cell lines, read-out: Mean growth percentage): 25.2%
- activity at 10 µM ([1]; range over the cell lines, read-out: growth percentages against most of the tested cells (lowest to highest)): -86.2 to 108%
- Log10GI50 _MID [1, 2]: -5.13 Molar
- Log10LC50 _MID [1, 2]: -4.25 Molar
- Log10TGI _MID [1, 2]: -4.62 Molar
- GI50 (SNB-19; SNB-19): 5.42 µM
- activity at 10 µM (SNB-19; SNB-19, 48 h, read-out: Growth Percentage): 41.2%
- CC50 (SNB-19; SNB-19, read-out: LC50): 43.2 µM
- IC (TGI) (SNB-19; SNB-19, read-out: TGI): 18.3 µM
- GI50 (K-562; K562): 3.5 µM
- activity at 10 µM (K-562; K562, 48 h, read-out: Growth Percentage): 12.3%
- CC50 (K-562; K562, read-out: LC50): > 100 µM
- IC (TGI) (K-562; K562, read-out: TGI): > 100 µM
- GI50 (MOLT-4; MOLT-4): 3.79 µM
- activity at 10 µM (MOLT-4; MOLT-4, 48 h, read-out: Growth Percentage): 14.2%
- CC50 (MOLT-4; MOLT-4, read-out: LC50): > 100 µM
- IC (TGI) (MOLT-4; MOLT-4, read-out: TGI): > 100 µM
- GI50 (RPMI-8226; RPMI-8226): 3.55 µM
- activity at 10 µM (RPMI-8226; RPMI-8226, 48 h, read-out: Growth Percentage): -7.9%
- CC50 (RPMI-8226; RPMI-8226, read-out: LC50): > 100 µM
- IC (TGI) (RPMI-8226; RPMI-8226, read-out: TGI): > 100 µM
- GI50 (SR): 2.86 µM
- activity at 10 µM (SR; [3]): -4.81%
- CC50 (SR; read-out: LC50): > 100 µM
- IC (TGI) (SR; read-out: TGI): > 100 µM
- GI50 (EKVX): 16.4 µM
- activity at 10 µM (EKVX; [3]): 74.7%
- CC50 (EKVX; read-out: LC50): 58.1 µM
- IC (TGI) (EKVX; read-out: TGI): 30.9 µM
- GI50 (NCI-H226; NCI-H226): 15.6 µM
- activity at 10 µM (NCI-H226; NCI-H226, 48 h, read-out: Growth Percentage): 91.4%
- CC50 (NCI-H226; NCI-H226, read-out: LC50): > 100 µM
- IC (TGI) (NCI-H226; NCI-H226, read-out: TGI): 42.1 µM
- GI50 (NCI-H23; NCI-H23): 12.2 µM
- activity at 10 µM (NCI-H23; NCI-H23, 48 h, read-out: Growth Percentage): 49.2%
- CC50 (NCI-H23; NCI-H23, read-out: LC50): 52.6 µM
- IC (TGI) (NCI-H23; NCI-H23, read-out: TGI): 25.3 µM
- GI50 (NCI-H322M): 11 µM
- activity at 10 µM (NCI-H322M; [3]): 50.7%
- CC50 (NCI-H322M; read-out: LC50): 54.6 µM
- IC (TGI) (NCI-H322M; read-out: TGI): 24.5 µM
- GI50 (NCI-H522; NCI-H522): 9.37 µM
- activity at 10 µM (NCI-H522; NCI-H522, 48 h, read-out: Growth Percentage): 33%
- CC50 (NCI-H522; NCI-H522, read-out: LC50): 51.5 µM
- IC (TGI) (NCI-H522; NCI-H522, read-out: TGI): 22.5 µM
- GI50 (COLO 205; COLO 205): 15.9 µM
- activity at 10 µM (COLO 205; COLO 205, 48 h, read-out: Growth Percentage): 91.5%
- CC50 (COLO 205; COLO 205, read-out: LC50): > 100 µM
- IC (TGI) (COLO 205; COLO 205, read-out: TGI): 41.1 µM
- GI50 (SF-268; SF-268): 15.6 µM
- activity at 10 µM (SF-268; SF-268, 48 h, read-out: Growth Percentage): 47.4%
- CC50 (SF-268; SF-268, read-out: LC50): 67.3 µM
- IC (TGI) (SF-268; SF-268, read-out: TGI): 32.4 µM
- GI50 (SF-539; SF-539): 2.31 µM
- activity at 10 µM (SF-539; SF-539, 48 h, read-out: Growth Percentage): -25.2%
- IC (TGI) (SF-539; SF-539, read-out: TGI): 7.02 µM
